The results in this text go back to patent publication US10487045B2, “Adamantane derivative and use thereof” (TOHOKU UNIVERSITY, priority 2016, dated 2019).

The target of test [1] is T1, Kir6.2 channel (Mus musculus, UniProt Q61743).
T1 construct: expressed in transfected cells; host or cells: Neuro2A (N2A) cells, transient transfection with pcDNA3.1-Kir6.2 (gift of Dr. Toru Ishizuka, Tohoku University)
T1 sequence (Q61743 1-390): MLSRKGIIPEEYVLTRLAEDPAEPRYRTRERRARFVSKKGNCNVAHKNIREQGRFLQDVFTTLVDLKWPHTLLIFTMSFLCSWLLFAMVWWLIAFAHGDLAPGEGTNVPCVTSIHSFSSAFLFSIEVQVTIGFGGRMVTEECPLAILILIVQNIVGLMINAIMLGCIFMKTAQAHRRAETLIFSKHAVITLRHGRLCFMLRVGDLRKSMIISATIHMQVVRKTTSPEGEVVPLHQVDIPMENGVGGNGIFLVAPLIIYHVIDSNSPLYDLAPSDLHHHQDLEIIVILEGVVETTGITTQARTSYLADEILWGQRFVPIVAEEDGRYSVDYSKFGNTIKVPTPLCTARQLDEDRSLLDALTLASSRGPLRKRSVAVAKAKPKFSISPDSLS
As to the kind of experiment: CaMKII activation in N2A cells overexpressing Kir6.2 channel (immunoblotting, anti-phosphorylated CaMKII antibody). The conditions noted are these: 10 nM, one hour, Kir6.2 channel overexpressing N2A cells; control without compound = 100%. The test is classed as cell-based. Here is the method:
A plasmid vector having cDNA of Kir6.2 channel inserted therein: pcDNA3.1-Kir6.2, was obtained from Dr. Toru Ishizuka (Graduate School of Life Sciences, Tohoku University). The plasmid vector, pcDNA3.1-Kir6.2, was conditioned in accordance with the manual attached to GenElute HP Plasmid Maxiprep Kit (manufactured by Sigma-Aldrich). A culture solution (composition: DMEM culture solution 450 mL containing 50 ml of bovine serum and 100 units of penicillin/streptomycin) of Neuro2A cells (N2A cells, the National Instituted of Biomedical Innovation) cultured in DMEM culture solution (Gibco) was exchanged with Opti-Mem (Gibco)(containing Lipofectamine R2000 (1 μg/1 ml)) containing pcDNA3.1-Kir6.2 (1 μg/μl) conditioned above, and cultured for 5 hours to obtain N2A cells overexpressing Kir6.2 channel. Exchange with the DMEM culture solution was again performed and culture was carried out for two days. Thereafter, memantine (manufactured by Sigma-Aldrich) and the compound of the present invention (n=4 per group) were added in the culture solutions (DMEM, Gibco) so as to obtain a concentration of 10 nM based on the culture solution, and the culture solutions were allowed to stand still for one hour. Thereafter, Kir6.2 channel overexpressing N2A cells were collected and an SDS sample buffer was added to the N2A cells to prepare a suspension. The suspension was subjected to immunoblotting by use of an anti-phosphorylated CaMKII antibody (Fukunaga K et al., J. Biol. Chem. 1992, 267, 22527-22533) as a primary antibody and an anti-rabbit IgG antibody (manufactured by SouthernBiotech) as a secondary antibody (other conditions except the aforementioned antibodies were the same as those employed in ordinary immunoblotting), to investigate activation of CaMKII. As a result, in TP-009, TP-010, TP-011, TP-012, TP-014, TP-015, TP-048, TP-049, TP-050, TP-051, TP-052, TP-053, bands showing a reaction with the antibody against phosphorylated CaMKII were obtained. It was confirmed that activation of CaMKII is enhanced. In FIG. 1, the result of the case (control: c) where a test compound was not added is regarded as 100%. CaMKII activation of the cases containing memantine, TP-009, TP-010, TP-011, TP-012, TP-014, TP-015, TP-048, TP-049, TP-050, TP-051, TP-052, TP-053 (corresponding to M, 9, 10, 11, […], 15, 48, 49, 50, 51, 52 and 53, respectively) were shown in FIG. 1.

For test [2], the system named is Kir6.1 defective mice administered with corticosterone. Briefly: Anxiety-related behavioral tests in Kir6.1 defective mice administered with corticosterone. The test is classed as in vivo. The conditions noted are these: Kir6.1 defective mice + corticosterone; TP-014 1 mg/kg oral once a day for 2 weeks. The protocol:
(§1) Using WT mice (C57BL/6J, Japan SLC, two months old) administered with corticosterone (dose of 5 mg/kg was administered once a day for 2 weeks); and Kir6.1 defective mice administered with corticosterone, as disease model mice showing anxiety-like symptoms, five behavioral tests regarding anxiety-related behavior were conducted. Note that, the Kir6.1 defective mice were obtained from Professor Susumu Seino, School of Medicine of Kobe University (Miki T et al., Nature Medicine 2002, 8, 466-472).
(§2) To the WT mice and Kir6.1 defective mice administered with corticosterone, TP-014 (1 mg/kg) was administered via the oral route once a day for 2 weeks (chronic treatment). As a result, it was confirmed that a significant anxiety symptom acceleration improving effect was obtained. […]
(§3) The time until a mouse placed in a black box (dark place) feels anxiety to light and comes out of the box to a bright place) was measured. […]
(§4) In the cage for housing a mouse is filled with wood chip bedding and 20 marbles are placed such that a mouse can see them. […] The number of marbles buried and hidden in the wood chip bedding is counted. […]
(§5) Using the same test apparatus as in the light/dark test method, a mouse is placed in a dark place, and then, sound (treble) is produced for 30 seconds and thereafter electrical stimulation is given for 3 seconds. […] The immobility time of the mouse is measured. […]

Test [3] has as its system WT mice administered with corticosterone. As to the kind of experiment: Anxiety-related behavioral tests (elevated plus-maze, light/dark, marble burying, open field, fear conditioning) in WT mice administered with corticosterone. The test is classed as in vivo. The conditions noted are these: WT mice + corticosterone 5 mg/kg; TP-014 1 mg/kg oral once a day for 2 weeks; all five tests. Here is the method:
as §1, §2, §3, §4, §5

Take `O=C(N[C@@H](c1ccccc1)[C@H]1[C@H]2C[C@@H]3C[C@](Cl)(C2)C[C@@]1(OC(=O)C(F)(F)F)C3)C(F)(F)F` [TP-014, (1S,2R,3S,5S,7S)-5-chloro-2-((R)-phenyl(2,2,2-trifluoroacetamido)methyl)adamantan-1-yl 2,2,2-trifluoroacetate]: the “activation of CaMKII (phosphorylated CaMKII bands)” value in test [1] is “enhanced”. In addition, the anxiety-like symptoms entry in test [2] is “no improvement effect”. Also, the “acceleration of anxiety-like symptom” value in test [3] is on record as “improve acceleration of anxiety-like symptom”.
